Assay results as given in ChEMBL document CHEMBL1135808, “A new type of mixed anhydride and its applications to the synthesis of 7-substituted 8-chloro-5,5-dioxoimidazo[1,2-b][1,4,2]benzodithiazines with in vitro antitumor activity” (2002).

Key:
Format in all cases: functional
CCRF-CEM = assay: Log of molar concentration leading to 50% cell death against leukemia CCRF-CEM cell line was reported; conditions: Homo sapiens, read-out: Log LC50 (the source's name) (converted)
SNB-75 = assay: Log of molar concentration leading to 50% cell death against CNS cancer SNB-75 cell line was reported; conditions: Homo sapiens, read-out: Log LC50 (the source's name) (converted)
M14 = assay: In vitro growth inhibition against melanoma M14 cell line was reported.; conditions: Homo sapiens
MOLT-4 [1] = assay: Log of molar concentration leading to 50% cell death against leukemia MOLT-4 cell line was reported; conditions: Homo sapiens, read-out: Log LC50 (the source's name) (converted)
LOX IMVI = assay: Log of molar concentration leading to 50% cell death against melanoma LOX IMVI cell line was reported; conditions: Homo sapiens, read-out: Log LC50 (the source's name) (converted)
NCI-H23 = assay: Log of molar concentration leading to 50% cell death against non-small-cell lung cancer NCI-H23 cell line was reported; conditions: Homo sapiens, read-out: Log LC50 (the source's name) (converted)
HCT-116 = assay: Log of molar concentration leading to 50% cell death against colon cancer HCT116 cell line was reported; conditions: Homo sapiens, read-out: Log LC50 (the source's name) (converted)
MOLT-4 [2] = assay: In vitro total growth inhibition against leukemia MOLT-4 cell lines was reported.; conditions: Homo sapiens, read-out: Log TGI (converted)
MDA-N = assay: Log of molar concentration leading to 50% cell death against breast cancer MDA-Ncell line was reported; conditions: Homo sapiens, read-out: Log LC50 (the source's name) (converted)
OVCAR-4 = assay: In vitro growth inhibition against ovarian cancer OVCAR-4 cell line was reported.; conditions: Homo sapiens
SK-OV-3 [3] = assay: In vitro growth inhibition against ovarian cancer SK-OV-3 cell line was reported.; conditions: Homo sapiens
SNB-19 [4] = assay: Log of molar concentration leading to 50% cell death against CNS cancer SNB-19 cell line was reported; conditions: Homo sapiens, read-out: Log LC50 (the source's name) (converted)
SNB-19 [5] = assay: In vitro total growth inhibition against CNS cancer SNB-19 cell lines was reported.; conditions: Homo sapiens, read-out: Log TGI (converted)
COLO 205 = assay: Log of molar concentration leading to 50% cell death against colon cancer COLO 205 cell line was reported; conditions: Homo sapiens, read-out: Log LC50 (the source's name) (converted)
SK-MEL-28 [6] = assay: Log of molar concentration leading to 50% cell death against melanoma SK-MEL-28 cell line was reported; conditions: Homo sapiens, read-out: Log LC50 (the source's name) (converted)
K562 = assay: Log of molar concentration leading to 50% cell death against leukemia K-562 cell line was reported; conditions: Homo sapiens, read-out: Log LC50 (the source's name) (converted)
OVCAR-3 [7] = assay: In vitro growth inhibition against ovarian cancer OVCAR-3 cell line was reported.; conditions: Homo sapiens
DU-145 = assay: In vitro growth inhibition against prostate cancer […] cell line was reported.; conditions: Homo sapiens
MDA-MB-435 = assay: Log of molar concentration leading to 50% cell death against breast cancer MDA-MB-435 cell line was reported; conditions: Homo sapiens, read-out: Log LC50 (the source's name) (converted)
MDA-MB-231 = assay: In vitro total growth inhibition against breast cancer MDA-MB-231/ATCC cell lines was reported.; conditions: Homo sapiens, read-out: Log TGI (converted)
SN12C [8] = assay: In vitro total growth inhibition against renal cancer SN12C cell lines was reported.; conditions: Homo sapiens, read-out: Log TGI (converted)
OVCAR-3 [9] = assay: Log of molar concentration leading to 50% cell death against ovarian cancer OVCAR-3 cell line was reported; conditions: Homo sapiens, read-out: Log LC50 (the source's name) (converted)
ACHN = assay: Log of molar concentration leading to 50% cell death against renal cancer ACHN cell line was reported; conditions: Homo sapiens, read-out: Log LC50 (the source's name) (converted)
OVCAR-5 = assay: Log of molar concentration leading to 50% cell death against ovarian cancer […] cell line was reported; conditions: Homo sapiens, read-out: Log LC50 (the source's name) (converted)
SK-MEL-5 = assay: In vitro growth inhibition against melanoma SK-MEL-5 cell line was reported.; conditions: Homo sapiens
SN12C [10] = assay: In vitro growth inhibition against renal cancer SN12C cell line was reported.; conditions: Homo sapiens
A498 [11] = assay: In vitro total growth inhibition against renal cancer A-498 cell lines was reported.; conditions: Homo sapiens, read-out: Log TGI (converted)
SK-OV-3 [12] = assay: In vitro total growth inhibition against ovarian cancer SK-OV-3 cell lines was reported.; conditions: Homo sapiens, read-out: Log TGI (converted)
BT-549 [13] = assay: Log of molar concentration leading to 50% cell death against breast cancer BT 549 cell line was reported; conditions: Homo sapiens, read-out: Log LC50 (the source's name) (converted)
Malme-3M [14] = assay: In vitro total growth inhibition against melanoma MALME 3M cell lines was reported.; conditions: Homo sapiens, read-out: Log TGI (converted)
Hs-578T = assay: In vitro total growth inhibition against breast cancer HS 578T cell lines was reported.; conditions: Homo sapiens, read-out: Log TGI (converted)
A498 [15] = assay: In vitro growth inhibition against renal cancer A498 cell line was reported.; conditions: Homo sapiens
KM12 [16] = assay: In vitro growth inhibition against colon cancer KM12 cell line was reported.; conditions: Homo sapiens
NCI-H46 = assay: In vitro growth inhibition against non-small-cell lung cancer […] cell line was reported.; conditions: Homo sapiens
SR = assay: Log of molar concentration leading to 50% cell death against leukemia SR cell line was reported; conditions: Homo sapiens, read-out: Log LC50 (the source's name) (converted)
MCF7 = assay: In vitro growth inhibition against breast cancer MCF 7 cell line was reported.; conditions: Homo sapiens
HCC 2998 = assay: In vitro total growth inhibition against colon cancer HCC2998 cell lines was reported.; conditions: Homo sapiens, read-out: Log TGI (converted)
UACC-257 = assay: In vitro total growth inhibition against melanoma UACC-257 cell line was reported.; conditions: Homo sapiens
A498 [17] = assay: Log of molar concentration leading to 50% cell death against renal cancer A498 cell line was reported; conditions: Homo sapiens, read-out: Log LC50 (the source's name) (converted)
IGROV-1 = assay: In vitro total growth inhibition against ovarian cancer IGROV1 cell lines was reported.; conditions: Homo sapiens, read-out: Log TGI (converted)
SK-MEL-28 [18] = assay: In vitro growth inhibition against melanoma SK-MEL-28 cell line was reported.; conditions: Homo sapiens
BT-549 [19] = assay: In vitro total growth inhibition against breast cancer BT 549 cell line was reported.; conditions: Homo sapiens, read-out: Log TGI (converted)
HCT-15 = assay: Log of molar concentration leading to 50% cell death against colon cancer HCT-15 cell line was reported; conditions: Homo sapiens, read-out: Log LC50 (the source's name) (converted)
UO-31 = assay: Log of molar concentration leading to 50% cell death against renal cancer UO-31 cell line was reported; conditions: Homo sapiens, read-out: Log LC50 (the source's name) (converted)
T47D = assay: In vitro growth inhibition against breast cancer […] cell line was reported.; conditions: Homo sapiens
NCI-H226 = assay: Log of molar concentration leading to 50% cell death against non-small-cell lung cancer NCI-H226 cell line was reported; conditions: Homo sapiens, read-out: Log LC50 (the source's name) (converted)
PC-3 = assay: In vitro total growth inhibition against prostate cancer PC-3 cell lines was reported.; conditions: Homo sapiens, read-out: Log TGI (converted)
KM12 [20] = assay: Log of molar concentration leading to 50% cell death against colon cancer KM12 cell line was reported; conditions: Homo sapiens, read-out: Log LC50 (the source's name) (converted)
SN12C [21] = assay: Log of molar concentration leading to 50% cell death against renal cancer SN12C cell line was reported; conditions: Homo sapiens, read-out: Log LC50 (the source's name) (converted)
SF-268 = assay: In vitro total growth inhibition against CNS cancer SF-268 cell lines was reported.; conditions: Homo sapiens, read-out: Log TGI (converted)
OVCAR-8 = assay: In vitro total growth inhibition against ovarian cancer OVCAR-8 cell lines was reported.; conditions: Homo sapiens, read-out: Log TGI (converted)
KM12 [22] = assay: In vitro total growth inhibition against colon cancer KM12 cell lines was reported.; conditions: Homo sapiens, read-out: Log TGI (converted)
Malme-3M [23] = assay: Log of molar concentration leading to 50% cell death against melanoma MALME 3M cell line was reported; conditions: Homo sapiens, read-out: Log LC50 (the source's name) (converted)

## O=C(Nc1nccs1)c1cc2c(cc1Cl)Sc1nccn1S2(=O)=O
CCRF-CEM
  CC50: 95.5 µM
SNB-75
  CC50: 66.1 µM
M14
  GI50: 17.8 µM
MOLT-4 [1]
  CC50: 93.3 µM
LOX IMVI
  CC50: 60.3 µM
NCI-H23
  CC50: 67.6 µM
HCT-116
  CC50: 55 µM
MOLT-4 [2]
  TGI: 41.7 µM
MDA-N
  CC50: 61.7 µM
OVCAR-4
  GI50: 16.2 µM
SK-OV-3 [3]
  GI50: 24.5 µM
SNB-19 [4]
  CC50: 72.4 µM
SNB-19 [5]
  TGI: 37.2 µM
COLO 205
  CC50: 56.2 µM
SK-MEL-28 [6]
  CC50: 70.8 µM
K562
  CC50: 87.1 µM
OVCAR-3 [7]
  GI50: 15.1 µM
DU-145
  GI50: 16.2 µM
MDA-MB-435
  CC50: 57.5 µM
MDA-MB-231
  TGI: 36.3 µM
SN12C [8]
  TGI: 32.4 µM
OVCAR-3 [9]
  CC50: 53.7 µM
ACHN
  CC50: 58.9 µM
OVCAR-5
  CC50: 97.7 µM
SK-MEL-5
  GI50: 16.6 µM
SN12C [10]
  GI50: 17 µM
A498 [11]
  TGI: 34.7 µM
SK-OV-3 [12]
  TGI: 64.6 µM
BT-549 [13]
  CC50: 69.2 µM
Malme-3M [14]
  TGI: 37.2 µM
Hs-578T
  TGI: 91.2 µM
A498 [15]
  GI50: 19.1 µM
KM12 [16]
  GI50: 12.3 µM
NCI-H46
  GI50: 15.8 µM
SR
  CC50: 46.8 µM
MCF7
  GI50: 6.76 µM
HCC 2998
  TGI: 29.5 µM
UACC-257
  GI50: 13.8 µM
A498 [17]
  CC50: 63.1 µM
IGROV-1
  TGI: 29.5 µM
SK-MEL-28 [18]
  GI50: 20 µM
BT-549 [19]
  TGI: 35.5 µM
HCT-15
  CC50: 93.3 µM
UO-31
  CC50: 46.8 µM
T47D
  GI50: 23.4 µM
NCI-H226
  CC50: 64.6 µM
PC-3
  TGI: 33.1 µM
KM12 [20]
  CC50: 57.5 µM
SN12C [21]
  CC50: 63.1 µM
SF-268
  TGI: 46.8 µM
OVCAR-8
  TGI: 37.2 µM
KM12 [22]
  TGI: 26.3 µM
Malme-3M [23]
  CC50: 69.2 µM
